Usually IC50 stands for the concentration that inhibits the measured activity by half.

Data on two molecules can be found in US8980901B2, “5-fluoro-3-phenyl-2[1-(9H-purin-6-ylamino)propyl]-3H-quinazolin-4-one and 6-fluoro-3-phenyl-2-[1-(9H-purin-6-ylamino)ethyl]-3H-quinazolin-4-one as inhibitors of human phosphatidylinositol 3-kinase delta” (Icos Corporation, priority 2004, dated 2015).

The test system of one assay is osteoclasts. As to the kind of experiment: Osteoclast function (pit depth on dentine slices). Type of assay: cell-based, mouse. The settings on record: PI3K inhibitors 100 nM, 72 hr. As for the experimental part: To analyze the effect of the present PI3Kδ inhibitor compounds on osteoclasts, mouse bone marrow cells are isolated and differentiated to osteoclasts by treating the cells with Macrophage Colony Stimulating Factor^−1 (mCSF^−1) and Osteoprotegerin Ligand (OPGL) in serum-containing medium (αMEM with 10% heat-inactivated FBS; Sigma) for 3 days. On day four, when the osteoclasts had developed, the medium is removed and cells are harvested. The osteoclasts are plated on dentine slices at 10^5 cells/well in growth medium, i.e., αMEM containing 1% serum and 2% BSA with […] OPGL and 10 ng/mL mCSF^−1. After 3 hr, the medium is changed to 1% serum and 1% BSA, with or without osteopontin (25 μg/mL) and the PI3K inhibitors (100 nM). The medium is changed every 24 hours with fresh osteopontin and the inhibitors. At 72 hr, the medium is removed, and the dentine surfaces are washed with water to remove cell debris and stained with acid hematoxylin. Excess stain is washed and the pit depths are quantitated using confocal microscopy.

Another assay deals with Class I PI 3-kinases. As to conditions: read-out: IC50 values against each of these PI 3-kinases; cited from earlier work.
In another assay the test system is neutrophil. As to conditions: cited from earlier work.

Structures are written as SMILES.

`O=c1cc(N2CCOCC2)oc2c(-c3ccccc3)cccc12` [LY294002]: the “inhibition of osteoclast activity” value in the assay with osteoclasts is listed as “inhibited osteoclast activity”. Further, the IC50 with Class I PI 3-kinases was roughly 1 µM. Also, in the assay on neutrophil, the neutrophil migration result was “block” and the superoxide release result is “block”.
Regarding `COC[C@H]1OC(=O)c2coc3c2[C@@]1(C)C1=C(C3=O)[C@@H]2CCC(=O)[C@@]2(C)C[C@H]1OC(C)=O` [wortmannin], the “inhibition of osteoclast activity” value in the assay with osteoclasts is “inhibited osteoclast activity”. Further, in the assay with neutrophil, the neutrophil migration entry is reported as “block” and the superoxide release entry is “block”.
